Our source for the IC50 values is patent US8148391B2 (Cephalon, Inc., priority 2006, dated 2012).

The target of experiment [1] is T1, baculovirus-expressed ALK (Homo sapiens, UniProt Q9UM73).
T1 construct: host or cells: baculovirus expression system
Put plainly: ALK Kinase Assay (ELISA-type, time-resolved fluorescence). To be noted: ALK kinase inhibition, 1 μM ATP (Km level); read-out: ALK Activity. The format is biochemical. In short, it runs like this:
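Substrate coating: phospholipase C-γ, 10 μg/mL in TBS. Kinase step: 30 ng/ml ALK, 15 min, 37° C. Detection and analysis: Eu-N1 PT66 antibody, with IC50 fitted as a sigmoidal variable-slope dose-response curve.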

Experiment [2] deals with T2, c-Met (cytoplasmic domain) (Homo sapiens, UniProt P08581).
T2 construct: 10 ng/mL c-Met (cytoplasmic domain, Invitrogen Corporation #PV3143); purchased Invitrogen Corporation PV3143
In words: c-Met Kinase Assay (same methods as for ALK, with modifications). The class given is biochemical. To be noted: c-Met kinase inhibition, 1 μM ATP (Km level); read-out: cMet Activity. In short, it runs like this:
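This plate-based kinase format uses immobilized phospholipase C-γ as substrate, phosphorylated by c-Met cytoplasmic domain (10 ng/mL) at 37° C for 15 minutes.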

T1 sequence (Q9UM73 19-1620): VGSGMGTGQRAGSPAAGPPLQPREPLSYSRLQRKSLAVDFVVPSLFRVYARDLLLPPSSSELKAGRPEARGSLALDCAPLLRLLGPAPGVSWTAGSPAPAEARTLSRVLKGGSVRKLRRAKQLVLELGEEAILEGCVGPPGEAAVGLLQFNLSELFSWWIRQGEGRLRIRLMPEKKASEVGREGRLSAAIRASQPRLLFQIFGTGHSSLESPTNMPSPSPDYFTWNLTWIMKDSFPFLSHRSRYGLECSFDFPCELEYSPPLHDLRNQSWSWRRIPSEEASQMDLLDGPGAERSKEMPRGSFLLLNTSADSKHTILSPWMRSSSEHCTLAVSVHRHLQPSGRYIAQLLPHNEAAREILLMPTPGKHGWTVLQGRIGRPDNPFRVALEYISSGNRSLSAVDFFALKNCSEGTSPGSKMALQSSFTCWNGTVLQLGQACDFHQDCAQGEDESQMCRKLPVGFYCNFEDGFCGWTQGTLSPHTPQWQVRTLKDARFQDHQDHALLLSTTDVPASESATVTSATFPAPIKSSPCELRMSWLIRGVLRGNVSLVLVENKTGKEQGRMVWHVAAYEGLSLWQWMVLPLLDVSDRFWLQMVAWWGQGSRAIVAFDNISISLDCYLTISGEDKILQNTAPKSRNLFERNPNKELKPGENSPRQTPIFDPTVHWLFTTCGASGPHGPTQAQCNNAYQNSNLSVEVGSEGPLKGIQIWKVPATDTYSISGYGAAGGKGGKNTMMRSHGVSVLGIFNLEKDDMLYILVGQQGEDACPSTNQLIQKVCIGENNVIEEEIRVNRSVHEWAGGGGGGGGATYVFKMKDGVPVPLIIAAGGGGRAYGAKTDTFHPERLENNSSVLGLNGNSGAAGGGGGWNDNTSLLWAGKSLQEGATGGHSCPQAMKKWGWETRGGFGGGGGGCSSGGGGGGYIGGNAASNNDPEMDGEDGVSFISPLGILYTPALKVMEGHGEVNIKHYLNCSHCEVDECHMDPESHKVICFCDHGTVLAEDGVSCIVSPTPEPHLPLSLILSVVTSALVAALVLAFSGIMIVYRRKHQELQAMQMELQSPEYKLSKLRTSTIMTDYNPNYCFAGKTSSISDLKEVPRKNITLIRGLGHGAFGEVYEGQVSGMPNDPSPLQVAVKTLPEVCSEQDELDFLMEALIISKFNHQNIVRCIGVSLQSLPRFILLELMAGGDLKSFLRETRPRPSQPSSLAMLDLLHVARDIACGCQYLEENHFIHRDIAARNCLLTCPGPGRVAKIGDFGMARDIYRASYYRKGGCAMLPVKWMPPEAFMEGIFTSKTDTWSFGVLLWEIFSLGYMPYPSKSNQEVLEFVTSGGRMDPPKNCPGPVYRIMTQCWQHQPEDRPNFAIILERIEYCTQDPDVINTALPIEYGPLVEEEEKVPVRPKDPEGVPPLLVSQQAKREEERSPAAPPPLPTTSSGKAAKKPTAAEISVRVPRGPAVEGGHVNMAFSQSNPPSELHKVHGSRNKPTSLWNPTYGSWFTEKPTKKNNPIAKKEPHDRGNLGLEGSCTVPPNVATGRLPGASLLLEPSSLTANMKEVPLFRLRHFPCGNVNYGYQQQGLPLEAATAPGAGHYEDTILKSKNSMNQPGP
T2 sequence (P08581 956-1390 limits assumed): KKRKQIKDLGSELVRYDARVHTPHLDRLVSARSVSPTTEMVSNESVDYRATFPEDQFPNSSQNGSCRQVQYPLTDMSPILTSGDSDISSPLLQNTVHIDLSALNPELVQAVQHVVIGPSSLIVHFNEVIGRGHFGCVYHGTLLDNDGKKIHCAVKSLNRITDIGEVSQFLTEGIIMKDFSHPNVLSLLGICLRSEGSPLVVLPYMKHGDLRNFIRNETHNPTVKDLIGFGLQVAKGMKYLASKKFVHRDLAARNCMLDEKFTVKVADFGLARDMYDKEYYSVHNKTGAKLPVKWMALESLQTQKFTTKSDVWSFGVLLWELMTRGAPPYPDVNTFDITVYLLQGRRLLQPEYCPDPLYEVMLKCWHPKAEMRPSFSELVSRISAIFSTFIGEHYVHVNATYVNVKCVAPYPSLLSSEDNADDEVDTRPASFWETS

As to `CNS(=O)(=O)c1ccccc1Nc1nc(Nc2ccc3c(c2)COC[C@@H]2CCCN32)ncc1Cl` [Example 13, 2-{5-Chloro-2-[(S)-(2,3,3a,4-tetrahydro-1H,6H-5-oxa-10b-aza-benzo[e]azulen-8-yl)amino]-pyrimidin-4-ylamino}-N-methyl-benzenesulfonamide], the IC50 in experiment [1] was under 100 nM; in experiment [2], 1000 to 10000 nM.
Consider `CNC(=O)c1ccccc1Nc1nc(Nc2ccc3c(c2)COCC2CCCCN32)ncc1Cl` (stereo not shown) [Example 14, 2-[5-Chloro-2-(7,7a,8,9,10,11-hexahydro-5H-6-oxa-11a-aza-dibenzo[a,c]cyclohepten-3-ylamino)-pyrimidin-4-ylamino]-N-methyl-benzamide], for which the IC50 in experiment [1] and in experiment [2] was under 100 nM each time.
For `CNC(=O)c1ccccc1Nc1nc(Nc2ccc3c(c2)COCCN3C)ncc1Cl` [Example 15, 2-[5-Chloro-2-(1-methyl-1,2,3,5-tetrahydro-benzo[e][1,4]oxazepin-7-ylamino)-pyrimidin-4-ylamino]-N-methyl-benzamide], the IC50 in experiment [1] and in experiment [2] was under 100 nM throughout.
Consider `CNS(=O)(=O)c1ccccc1Nc1nc(Nc2ccc3c(c2)COCCN3C)ncc1Cl` [Example 17, 2-[5-Chloro-2-(1-methyl-1,2,3,5-tetrahydro-benzo[e][1,4]oxazepin-7-ylamino)-pyrimidin-4-ylamino]-N-methyl-benzenesulfonamide], for which the IC50 in experiment [1] and in experiment [2] was under 100 nM each time.
As to `CNC(=O)c1ccccc1Nc1nc(Nc2ccc(OC)c3c2NC(=O)CCC3)ncc1Cl` [Example 18, 2-[5-Chloro-2-(6-methoxy-2-oxo-2,3,4,5-tetrahydro-1H-benzo[b]azepin-9-ylamino)-pyrimidin-4-ylamino]-N-methyl-benzamide], the IC50 in experiment [1] was under 100 nM; in experiment [2], 1000 to 10000 nM.
As for `CCN1CCc2ccc(Nc3ncc(Cl)c(Nc4ccccc4C(=O)NC)n3)cc2CC1` [Example 31, 2-[5-Chloro-2-(3-ethyl-2,3,4,5-tetrahydro-1H-benzo[d]azepin-7-ylamino)-pyrimidin-4-ylamino]-N-methyl-benzamide], the IC50 in experiment [1] and in experiment [2] was under 100 nM each time.
Turning to `CCN1CCc2ccc(Nc3ncc(Cl)c(Nc4ccccc4S(=O)(=O)NC)n3)cc2CC1` [Example 32, 2-[5-Chloro-2-(3-ethyl-2,3,4,5-tetrahydro-1H-benzo[d]azepin-7-ylamino)-pyrimidin-4-ylamino]-N-methyl-benzenesulfonamide], the IC50 in experiment [1] and in experiment [2] was under 100 nM in each case.
For the molecule `CCN1CCc2ccc(Nc3ncc(Cl)c(Nc4cc(Cl)ccc4C(=O)NC)n3)cc2CC1` [Example 33, 4-Chloro-2-[5-chloro-2-(3-ethyl-2,3,4,5-tetrahydro-1H-benzo[d]azepin-7-ylamino)-pyrimidin-4-ylamino]-N-methyl-benzamide], the IC50 in experiment [1] and in experiment [2] was under 100 nM in each case.
For `CNS(=O)(=O)c1ccccc1Nc1nc(Nc2ccc3c(c2)CCN(CCOC)CC3)ncc1Cl` [Example 35, 2-{5-Chloro-2-[3-(2-methoxy-ethyl)-2,3,4,5-tetrahydro-1H-benzo[d]azepin-7-ylamino]-pyrimidin-4-ylamino}-N-methyl-benzenesulfonamide], the IC50 in experiment [1] was under 100 nM; in experiment [2] it was 100 to 1000 nM.
`COCCN1CCc2ccc(Nc3ncc(Cl)c(N[C@@H]4CCCC[C@H]4NS(C)(=O)=O)n3)cc2CC1` [Example 36, N-((1R,2R)-2-{5-Chloro-2-[3-(2-methoxy-ethyl)-2,3,4,5-tetrahydro-1H-benzo[d]azepin-7-ylamino]-pyrimidin-4-ylamino}-cyclohexyl)-methanesulfonamide]: the figures for the IC50 in experiment [1] and in experiment [2] were under 100 nM and 1000 to 10000 nM, respectively.
With `CNC(=O)c1ccccc1Nc1nc(Nc2ccc3c(c2)CCN(CCF)CC3)ncc1Cl` [Example 38, 2-{5-Chloro-2-[3-(2-fluoro-ethyl)-2,3,4,5-tetrahydro-1H-benzo[d]azepin-7-ylamino]-pyrimidin-4-ylamino}-N-methyl-benzamide], the IC50 in experiment [1] and in experiment [2] was under 100 nM in each case.
In the case of `CNC(=O)c1ccccc1Nc1nc(Nc2ccc3c(c2)CCN(CC(C)(C)F)CC3)ncc1Cl` [Example 39, 2-{5-Chloro-2-[3-(2-fluoro-2-methyl-propyl)-2,3,4,5-tetrahydro-1H-benzo[d]azepin-7-ylamino]-pyrimidin-4-ylamino}-N-methyl-benzamide], the IC50 was under 100 nM in experiment [1] and 100 to 1000 nM in experiment [2].
Turning to `CC(C)(F)CN1CCc2ccc(Nc3ncc(Cl)c(N[C@@H]4CCCC[C@H]4NS(C)(=O)=O)n3)cc2CC1` [Example 40, N-((1R,2R)-2-{5-Chloro-2-[3-(2-fluoro-2-methyl-propyl)-2,3,4,5-tetrahydro-1H-benzo[d]azepin-7-ylamino]-pyrimidin-4-ylamino}-cyclohexyl)-methanesulfonamide], the IC50 in experiment [1] was under 100 nM; in experiment [2], 1000 to 10000 nM.
Take `CNC(=O)c1ccccc1Nc1nc(Nc2ccc3c(c2)CCN(CC(F)(F)F)CC3)ncc1Cl` [Example 41, 2-{5-Chloro-2-[3-(2,2,2-trifluoro-ethyl)-2,3,4,5-tetrahydro-1H-benzo[d]azepin-7-ylamino]-pyrimidin-4-ylamino}-N-methyl-benzamide]: the IC50 in experiment [1] and in experiment [2] was under 100 nM in each case.
In the case of `CNC(=O)c1ccccc1Nc1nc(Nc2ccc3c(c2)CCN(S(C)(=O)=O)CC3)ncc1Cl` [Example 42, 2-[5-Chloro-2-(3-methanesulfonyl-2,3,4,5-tetrahydro-1H-benzo[d]azepin-7-ylamino)-pyrimidin-4-ylamino]-N-methyl-benzamide], the IC50 in experiment [1] and in experiment [2] was under 100 nM throughout.
Take `CNS(=O)(=O)c1ccccc1Nc1nc(Nc2ccc3c(c2)CCN(S(C)(=O)=O)CC3)ncc1Cl` [Example 43, 2-[5-Chloro-2-(3-methanesulfonyl-2,3,4,5-tetrahydro-1H-benzo[d]azepin-7-ylamino)-pyrimidin-4-ylamino]-N-methyl-benzenesulfonamide]: the IC50 in experiment [1] and in experiment [2] was under 100 nM in each case.
Regarding `CNC(=O)c1ccccc1Nc1nc(Nc2ccc3c(c2)CCN(C(=O)C(F)(F)F)CC3)ncc1Cl` [Example 44, 2-{5-Chloro-2-[3-(2,2,2-trifluoro-acetyl)-2,3,4,5-tetrahydro-1H-benzo[d]azepin-7-ylamino]-pyrimidin-4-ylamino}-N-methyl-benzamide], the IC50 in experiment [1] and in experiment [2] was under 100 nM in each case.
For the molecule `CNC(=O)c1ccccc1Nc1nc(Nc2ccc3c(c2)CCNCC3)ncc1Cl` [Example 45, 2-[5-Chloro-2-(2,3,4,5-tetrahydro-1H-benzo[d]azepin-7-ylamino)-pyrimidin-4-ylamino]-N-methyl-benzamide], the IC50 in experiment [1] and in experiment [2] was under 100 nM throughout.
For the molecule `CNC(=O)c1ccccc1Nc1nc(Nc2ccc3c(c2)CCN(C)CC3)ncc1Cl` [Example 46, 2-[5-Chloro-2-(3-methyl-2,3,4,5-tetrahydro-1H-benzo[d]azepin-7-ylamino)-pyrimidin-4-ylamino]-N-methyl-benzamide], the IC50 in experiment [1] and in experiment [2] was under 100 nM each time.
Regarding `CNC(=O)c1ccccc1Nc1nc(Nc2ccc3c(c2)CCN(C(C)C)CC3)ncc1Cl` [Example 47, 2-[5-Chloro-2-(3-isopropyl-2,3,4,5-tetrahydro-1H-benzo[d]azepin-7-ylamino)-pyrimidin-4-ylamino]-N-methyl-benzamide], the IC50 in experiment [1] and in experiment [2] was under 100 nM each time.
